# Experiment: ESI positive response factor (isotope-corrected peak area per molar concentration) in SFC/ESI/HRMS (area units per M); higher = higher ionization efficiency
# 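Further: standards in acetonitrile/water run in triplicate on a zwitterionic HILIC column, CO2–methanol gradient containing 20 mmol/L ammonium acetate, postcolumn makeup flow, Orbitrap full-scan detection.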
Compound,ESI positive response factor (0.175 µM),ESI positive response factor (0.35 µM),ESI positive response factor (0.0175 µM),ESI positive response factor (0.035 µM),ESI positive response factor (0.0875 µM),other results
CC1(C)CCC(Cc2ccc(Cl)cc2)C1(O)Cn1cncn1 (centres undefined) [Metconazol],–,–,–,–,–,ESI positive response factor (0.0122 µM): 3.22e+17; ESI positive response factor (0.0244 µM): 3.52e+17; ESI positive response factor (0.061 µM): 3.16e+17
CN(C)C(=N)N=C(N)N [Metformin],–,–,–,–,–,ESI positive response factor (0.0244 µM): 4.62e+16; ESI positive response factor (0.061 µM): 9.71e+16; ESI positive response factor (0.122 µM): 9.59e+16; ESI positive response factor (0.244 µM): 1.01e+17
CC(=O)C1=C(C)C2CC3(C1)C(C)CCC3C2(C)C (centres undefined) [Methyl cedryl ketone],–,–,–,–,–,ESI positive response factor (0.122 µM): 1.43e+16; ESI positive response factor (0.244 µM): 1.56e+16; ESI positive response factor (0.61 µM): 1.43e+16; ESI positive response factor (1.22 µM): 1.44e+16
C[N+]1(C)[C@H]2CC(OC(=O)C(CO)c3ccccc3)C[C@H]1[C@H]1O[C@H]12 (some centres undefined) [Methyl scopolamine],–,–,6.75e+17,8.31e+17,7.49e+17,–
Cn1sccc1=O [Methylisothiazolinone],–,–,–,–,–,ESI positive response factor (0.61 µM): 9.58e+14; ESI positive response factor (1.22 µM): 1.18e+15
CON(C)C(=O)Nc1ccc(Br)cc1 [Metobromuron],–,–,–,–,–,ESI positive response factor (0.0122 µM): 2.18e+17; ESI positive response factor (0.0244 µM): 2.29e+17; ESI positive response factor (0.061 µM): 2.07e+17; ESI positive response factor (0.122 µM): 1.95e+17
CCc1cccc(C)c1N(C(=O)CCl)C(C)COC (centres undefined) [Metolachlor],–,–,–,–,–,ESI positive response factor (0.0122 µM): 4.41e+17; ESI positive response factor (0.0244 µM): 5.34e+17; ESI positive response factor (0.061 µM): 5.13e+17
CSc1nnc(C(C)(C)C)c(=O)n1N [Metribuzin],–,–,–,–,–,ESI positive response factor (0.0122 µM): 2.83e+17; ESI positive response factor (0.0244 µM): 2.15e+17; ESI positive response factor (0.061 µM): 1.69e+17; ESI positive response factor (0.122 µM): 1.54e+17; ESI positive response factor (0.244 µM): 1.52e+17
N=c1nc(N2CCCCC2)cc(N)n1O [Minoxidil],–,–,–,–,–,ESI positive response factor (0.0122 µM): 1.59e+17; ESI positive response factor (0.0244 µM): 1.78e+17; ESI positive response factor (0.061 µM): 1.77e+17; ESI positive response factor (0.122 µM): 1.69e+17; ESI positive response factor (0.244 µM): 1.72e+17
CCSC(=O)N1CCCCCC1 [Molinate],–,–,–,–,–,ESI positive response factor (0.061 µM): 1.56e+16; ESI positive response factor (0.122 µM): 1.94e+16; ESI positive response factor (0.244 µM): 2e+16; ESI positive response factor (0.61 µM): 1.59e+16; ESI positive response factor (1.22 µM): 1.93e+16
CN(C)C(=O)Nc1ccc(Cl)cc1 [Monuron],–,–,–,–,–,ESI positive response factor (0.0122 µM): 2.43e+16; ESI positive response factor (0.0244 µM): 2.85e+16; ESI positive response factor (0.061 µM): 3.31e+16; ESI positive response factor (0.122 µM): 3.07e+16; ESI positive response factor (0.244 µM): 3.26e+16
N=C(N=C(N)N)N1CCOCC1 [Moroxydine],–,–,–,–,–,ESI positive response factor (0.0122 µM): 1.51e+17; ESI positive response factor (0.0244 µM): 1.7e+17; ESI positive response factor (0.061 µM): 1.94e+17; ESI positive response factor (0.122 µM): 1.92e+17; ESI positive response factor (0.244 µM): 1.97e+17
"O=C1NCCCN1 [N,N?-Trimethyleneurea]",–,–,–,–,–,ESI positive response factor (0.0122 µM): 2.53e+16; ESI positive response factor (0.0244 µM): 3.89e+16; ESI positive response factor (0.061 µM): 3.96e+16
CNC(=O)CSP(=O)(OC)OC [Omethoate],3.18e+16,3.93e+16,2.18e+16,3.37e+16,3.65e+16,–
COCC(=O)N(c1c(C)cccc1C)N1CCOC1=O [Oxadixyl],1.23e+17,1.48e+17,1.33e+17,1.43e+17,1.57e+17,–
COc1ccc(C(=O)c2ccccc2)c(O)c1 [Oxybenzone],–,–,1.73e+17,1.88e+17,1.67e+17,–
O=c1nc2[nH][nH]cc-2c(=O)[nH]1 [Oxypurinol],–,–,–,–,–,ESI positive response factor (0.875 µM): 5.5e+14; ESI positive response factor (1.75 µM): 4.78e+14
CC(C)(CO)[C@@H](O)C(=O)NCCCO [Panthenol],–,–,–,–,–,ESI positive response factor (0.0122 µM): 5.93e+16; ESI positive response factor (0.0244 µM): 6.23e+16; ESI positive response factor (0.061 µM): 6.32e+16; ESI positive response factor (0.122 µM): 6.16e+16; ESI positive response factor (0.244 µM): 6.31e+16
COC=C(C(=O)OC)c1ccccc1COc1cccc(C(F)(F)F)n1 [Picoxystrobin],2.25e+17,2.47e+17,2.81e+17,2.82e+17,2.61e+17,–
CC(C)C[C@H](CN)CC(=O)O [Pregabalin],1.55e+16,1.8e+16,–,–,1.96e+16,ESI positive response factor (0.875 µM): 1.58e+16; ESI positive response factor (1.75 µM): 1.57e+16
COC(=O)N(OC)c1ccccc1COc1ccn(-c2ccc(Cl)cc2)n1 [Pyraclostrobin],4.73e+17,5.43e+17,6.62e+17,5.71e+17,5.45e+17,–
Fc1ccc(Oc2ccnc3cc(Cl)cc(Cl)c23)cc1 [Quinoxyfen],9.43e+17,–,9.87e+17,1.08e+18,9.74e+17,–
O=C(O)C(c1ccccc1)C1CCCCN1 (centres undefined) [Ritalinic acid],1.12e+17,1.31e+17,–,1.26e+17,1.24e+17,ESI positive response factor (0.875 µM): 1.17e+17; ESI positive response factor (1.75 µM): 1.26e+17
CC(C)NCC(O)c1ccc(NS(C)(=O)=O)cc1 (centres undefined) [Sotalol],–,–,2.28e+17,2.68e+17,2.59e+17,–
CC(CCl)OP(=O)(OC(C)CCl)OC(C)CCl (centres undefined) [TCPP],8.34e+17,7.91e+17,1.59e+18,1.21e+18,1.02e+18,–
O=P(OC(CCl)CCl)(OC(CCl)CCl)OC(CCl)CCl [TDCPP],–,–,4.09e+17,4.02e+17,3.57e+17,–
C[C@]12CC[C@H]3[C@@H](CCC4=CC(=O)CC[C@@]43C)[C@@H]1CC[C@@H]2O [Testosteron],–,–,2.27e+17,2.44e+17,2.22e+17,–
OCCN(CCO)CCO [Triethanolamine],8.76e+16,8.66e+16,8.84e+16,8.88e+16,8.78e+16,–
O=P(OCCCl)(OCCCl)OCCCl [Tris(2-chloroethyl) phosphate],–,–,2.68e+18,2.89e+18,2.72e+18,–
CC(O)CN(CC(C)O)CC(C)O (centres undefined) [triisopropanolamine],3.36e+17,3.51e+17,–,1.75e+17,2.93e+17,–

# Now from value to compound, other results behind:
ESI positive response factor (0.175 µM),ESI positive response factor (0.35 µM),Compound,ESI positive response factor (0.0175 µM),ESI positive response factor (0.035 µM),ESI positive response factor (0.0875 µM),other results
1.1e+16,1.34e+16,OCCN1C[C@H](O)[C@@H](O)[C@H](O)[C@H]1CO [Miglitol],–,5.69e+15,1e+16,ESI positive response factor (0.875 µM): 1.42e+16; ESI positive response factor (1.75 µM): 1.46e+16
3.9e+16,3.89e+16,"CC(=O)NCCNC(C)=O [N,N'-Ethylenebisacetamide]",–,4.39e+16,4.04e+16,–
–,8.93e+15,CC(=O)NCCCCC(N)C(=O)O [N?-Acetyl-L-lysine],–,–,–,ESI positive response factor (0.875 µM): 9.29e+15; ESI positive response factor (1.75 µM): 9.24e+15
6.98e+15,6.96e+15,COc1ccc2cc(C(C)C(=O)O)ccc2c1 (centres undefined) [Naproxen],–,7.47e+15,7.04e+15,–
3.21e+17,3.4e+17,NC(N)=NC(N)=NCCc1ccccc1 [Phenformin],2.9e+17,3.42e+17,3.34e+17,–
5.09e+17,–,NC(=O)C1(N2CCCCC2)CCN(CCCC(=O)c2ccc(F)cc2)CC1 [Pipamperone],4.81e+17,5.01e+17,5.44e+17,–
9.69e+16,1.08e+17,CCC1(c2ccccc2)C(=O)NCNC1=O [Primidone],8.94e+16,1.09e+17,1.15e+17,–
2.66e+15,3.31e+15,Cc1cc2nc3c(=O)[nH]c(=O)nc-3n(CC(O)C(O)C(O)CO)c2cc1C (centres undefined) [Riboflavin],–,–,–,ESI positive response factor (0.875 µM): 3.41e+15; ESI positive response factor (1.75 µM): 3.53e+15
5.79e+16,6.32e+16,NCC1CCC(C(=O)O)CC1 (centres undefined) [Tranexamic acid],–,9.61e+16,6.97e+16,ESI positive response factor (0.875 µM): 6.01e+16
7.97e+16,–,COCCOCCOCCO [Triethylene glycol monomethyl ether],8.19e+16,9.98e+16,8.29e+16,–
3.13e+17,3.46e+17,COc1cc(Cc2cnc(N)nc2N)cc(OC)c1OC [Trimethoprim],2.88e+17,3.52e+17,3.58e+17,ESI positive response factor (0.875 µM): 3.33e+17
5.75e+16,6.09e+16,CCCCC(=O)N(Cc1ccc(-c2ccccc2-c2nn[nH]n2)cc1)C(C(=O)O)C(C)C (centres undefined) [Valsartan],2.86e+16,5.36e+16,5.55e+16,ESI positive response factor (0.875 µM): 6.04e+16; ESI positive response factor (1.75 µM): 5.94e+16
5.79e+16,6.32e+16,C=CC(=O)OCC[N+](C)(C)C [[2-(Acryloyloxy)ethyl]trimethylammonium],–,8.46e+16,6.97e+16,ESI positive response factor (0.875 µM): 6.01e+16

# — the supplement of paper PMC10326909
